Reference: US4782069A, “1,4-Dihydropiridines and their use as antithrombotic drugs” (Alter, S.A., priority 1986, dated 1988)

Experiments:
[1] = tested on: human platelets (ADP-induced aggregation); assay: "In vitro" aggregation on human platelets (PRP), ADP-induced; assay type: cell-based; conditions: Platelet, 0.25 h, compound 10^-4 M, 37° C., 15 minutes, 2.5 uM ADP
Experimental: (§1) (Born, G.V.R., Nature 194:927 (1962)).
(§2) Citrated human blood was used, from which platelet-rich plasma (PRP) was prepared. 450 ul PRP aliquots were incubated at 37° C. with the assayed compounds at a single concentration of 10^-4 M for 15 minutes. Aggregating agents (2 ug/ml collagen and 2.5 uM ADP) were added in a 50 ul volume and the aggregation was measured as optical density decrease in the platelet suspension.

[2] = tested on: human platelets (collagen-induced aggregation); assay: "In vitro" aggregation on human platelets (PRP), collagen-induced; assay type: cell-based; conditions: Platelet, 0.25 h, compound 10^-4 M, 37° C., 15 minutes, 2 ug/ml collagen
Experimental: as §1, §2

[3] = tested on: human platelets (ATP secretion); assay: Releasing reaction (ATP secretion from activated platelets), simultaneous to collagen aggregation; assay type: cell-based; conditions: Platelet, 0.25 h, human PRP, compound 10^-4 M, 37° C., 15 minutes, 2 ug/ml collagen
Experimental: as §2

[4] = tested on: platelet thromboembolism in mice; assay: "In vivo" thrombosis model in the mouse (collagen + epinephrine i.v.); parameters: species or system CD-1 Charles River male mice; conditions: suspension in 0.5% carboxymethylcellulose, one to four hours after administration, i.v. 15 ug collagen and 1.8 ug epinephrine
Experimental: (B) "IN VIVO" THROMBOSIS MODEL (DiMinno, G., Silver, M. J.; J. Pharmacol. Exptl. Ther. 225:57 (1983)).
This is a suitable method for the screening of antithrombotic agents having a primary activity on platelet thormboembolism.
CD-1 Charles River male mice weighing 30 g were used. They received and i.v. injection of 15 ug collagen and 1.8 ug epinephrine in 100 ul of isotonic solution. About the 90% of the animals died or were paralysed for more than 15 minutes.
Drugs were intraperitoneally administered as a suspension in 0.5% carboxymethylcellulose and the protecting effect thereof against thrombosis was measured one to four hours after the administration.

SMILES	inhibition at 100 µM [1]	inhibition at 100 µM [2]	inhibition at 100 µM [3]	Protection % ([4]; 30 mg/kg intraperitoneal)	Protection % ([4]; 60 mg/kg intraperitoneal)
CCCCC1C(C(=O)OC)=C(C)NC(C)=C1C(=O)OCCN1C(=O)c2ccccc2S1(=O)=O (centres unmarked) [Example 6, 2-{N-(1,2-benzisothiazolyl-3(2H)one-1,1-dioxide)} ethyl 4-n-butyl-2,6-dimethyl-5-methoxycarbonyl-1,4-dihydropyridine-3-carboxylate]	8%	15%	29%	12%	34%
COC(=O)C1=C(C)NC(C)=C(C(=O)OCN2C(=O)c3ccccc3S2(=O)=O)C1C (centres unmarked) [Example 4, {N-(1,2-benzisothiazolyl-3(2H)one-1,1-dioxide)} methyl 2,6-dimethyl-4-methyl-5-methoxycarbonyl-1,4-dihydropyridine-3-carboxylate]	5%	14%	19%	20%	20%
CCOC(=O)C1=C(C)NC(C)=C(C(=O)OCN2C(=O)c3ccccc3S2(=O)=O)C1C (centres unmarked) [Example 5, {N-(1,2-benzisothiazolyl-3(2H)one-1,1-dioxide)} methyl 2,6-dimethyl-5-ethoxycarbonyl-4-methyl-1,4-dihydropyridine-3-carboxylate]	20%	55%	51%	30%	50%
CC1=C(C(=O)OCCNC(=O)c2ccccc2O)C(C)C(C(=O)OCCN2C(=O)c3ccccc3S2(=O)=O)=C(C)N1 (centres unmarked) [Example 3]	15%	24%	18%	62%	62%
COC(=O)C1=C(C)NC(C)=C(C(=O)OCCN2C(=O)c3ccccc3S2(=O)=O)C1C (centres unmarked) [Example 2, 2-{N-(1,2-benzisothiazolyl-3(2H)one-1,1-dioxide)} ethyl 2,6-dimethyl-4-methyl-5-methoxycarbonyl-1,4-dihydropyridine-3-carboxylate]	20%	48%	43%	0%	42%
OCCN(CCO)c1nc(N2CCCCC2)c2nc(N(CCO)CCO)nc(N3CCCCC3)c2n1 [DIPYRIDAMOL, reference compound]	–	–	–	30%	30%
CCOC(=O)C1=C(C)NC(C)=C(C(=O)OCCN2C(=O)c3ccccc3S2(=O)=O)C1C (centres unmarked) [Example 1, 2-{N-(1,2-benzisothiazolyl-3(2H)one-1,1-dioxide)} ethyl 2,6-dimethyl-5-ethoxycarbonyl-4-methyl-1,4-dihydropyridine-3-carboxylate]	12%	84%	80%	50%	70%
